Results: patent publication US7763642B2 (Sterix Ltd., priority 2004, dated 2010)
Where two headings read alike, the source gives them in different places.

What was measured:
[1] = target: T1, steroid sulphatase (STS) (Homo sapiens, UniProt P08842); assay: Inhibition of steroid sulphatase activity in JEG3 cells (Protocol 1); type: cell-based; settings: for inhibition at 10 µM: JEG-3, read-out: % STS INHIBITION (10 μM)
T1 construct: Intact monolayers of JEG3 cells in triplicate 25 cm^2 tissue culture flasks; host or cells: JEG3 choriocarcinoma cells
T1 sequence (P08842 22-583): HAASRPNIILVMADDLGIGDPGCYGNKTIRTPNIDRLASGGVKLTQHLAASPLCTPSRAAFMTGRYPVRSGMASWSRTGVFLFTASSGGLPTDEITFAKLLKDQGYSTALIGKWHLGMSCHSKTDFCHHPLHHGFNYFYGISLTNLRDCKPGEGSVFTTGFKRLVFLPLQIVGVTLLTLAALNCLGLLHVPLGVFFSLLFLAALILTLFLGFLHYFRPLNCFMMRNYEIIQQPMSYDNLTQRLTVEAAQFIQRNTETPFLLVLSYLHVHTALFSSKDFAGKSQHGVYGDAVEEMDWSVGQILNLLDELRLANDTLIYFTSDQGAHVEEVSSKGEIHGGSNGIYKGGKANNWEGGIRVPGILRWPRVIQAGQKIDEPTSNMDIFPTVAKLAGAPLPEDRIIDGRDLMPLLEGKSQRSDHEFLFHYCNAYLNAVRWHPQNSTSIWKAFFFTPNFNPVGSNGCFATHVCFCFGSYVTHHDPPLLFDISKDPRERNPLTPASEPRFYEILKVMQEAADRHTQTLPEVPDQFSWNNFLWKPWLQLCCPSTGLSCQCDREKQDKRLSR
Experimental: Steroid sulphatase activity is measured in vitro using intact JEG3 choriocarcinoma cells. This cell line may be used to study the control of human breast cancer cell growth.
Cells are maintained in Minimal Essential Medium (MEM) (Flow Laboratories, Irvine, Scotland) containing 20 mM HEPES, 5% foetal bovine serum, 2 mM glutamine, non-essential amino acids and 0.075% sodium bicarbonate. Up to 30 replicate 25 cm2 tissue culture flasks are seeded with approximately 1×10^5 cells/flask using the above medium. Cells are grown to 80% confluency and the medium is changed every third day.
Intact monolayers of JEG3 cells in triplicate 25 cm^2 tissue culture flasks are washed with Earle's Balanced Salt Solution (EBSS from ICN Flow, High Wycombe, U.K.) and incubated for 3-4 hours at 37° C. with 5 pmol (7×10^5 dpm) [6,7-3H]oestrone-3-sulphate (specific activity 60 Ci/mmol from New England Nuclear, Boston, Mass., U.S.A.) in serum-free MEM (2.5 ml) together with oestrone-3-sulphamate (11 concentrations: 0; 1 fM; 0.01 pM; 0.1 pM; 1 pM; 0.01 nM; 0.1 nM; 1 nM; […]). After incubation each flask is cooled and the medium (1 ml) is pipetted into separate tubes containing [14C]oestrone (7×10^3 dpm) (specific activity 97 Ci/mmol from Amersham International Radiochemical Centre, Amersham, U.K.). The mixture is shaken thoroughly for 30 seconds with toluene (5 ml). Experiments have shown that >90% [14C] oestrone and <0.1% [3H]oestrone-3-sulphate is removed from the aqueous phase by this treatment. A portion (2 ml) of the organic phase is removed, evaporated and the 3H and 14C content of the residue determined by scintillation spectrometry. The mass of oestrone-3-sulphate hydrolysed was calculated from the 3H counts obtained (corrected for the volumes of the medium and organic phase used, and for recovery of [14C] oestrone added) and the specific activity of the substrate. Each batch of experiments includes incubations of microsomes prepared from a sulphatase-positive human placenta (positive control) and flasks without cells (to assess apparent non-enzymatic hydrolysis of the substrate). The number of cell nuclei per flask is determined using a Coulter Counter after treating the cell monolayers with Zaponin. One flask in each batch is used to assess cell membrane status and viability using the Trypan Blue exclusion method (Phillips, H. J. (1973) In: Tissue culture and applications, [eds: Kruse, D. F. & Patterson, M. K.]; pp. 406-408; Academic Press, New York).
Results for steroid sulphatase activity are expressed as the mean±1 S.D. of the total product (oestrone+oestradiol) formed during the incubation period (3-4 hours) calculated for […] and, for values showing statistical significance, as a percentage reduction (inhibition) over incubations containing no oestrone-3-sulphamate. Unpaired Student's t-test was used to test the statistical significance of results.

[2] = target: T2, aromatase (Homo sapiens, UniProt P11511); assay: Aromatase activity in JEG3 choriocarcinoma cells (Protocol 6); type: cell-based
T2 construct: Intact monolayers of JEG3 cells (2.5×10^6 cells) in triplicate 25 cm^2 tissue culture flasks; host or cells: JEG3 choriocarcinoma cells
T2 sequence (P11511 1-503): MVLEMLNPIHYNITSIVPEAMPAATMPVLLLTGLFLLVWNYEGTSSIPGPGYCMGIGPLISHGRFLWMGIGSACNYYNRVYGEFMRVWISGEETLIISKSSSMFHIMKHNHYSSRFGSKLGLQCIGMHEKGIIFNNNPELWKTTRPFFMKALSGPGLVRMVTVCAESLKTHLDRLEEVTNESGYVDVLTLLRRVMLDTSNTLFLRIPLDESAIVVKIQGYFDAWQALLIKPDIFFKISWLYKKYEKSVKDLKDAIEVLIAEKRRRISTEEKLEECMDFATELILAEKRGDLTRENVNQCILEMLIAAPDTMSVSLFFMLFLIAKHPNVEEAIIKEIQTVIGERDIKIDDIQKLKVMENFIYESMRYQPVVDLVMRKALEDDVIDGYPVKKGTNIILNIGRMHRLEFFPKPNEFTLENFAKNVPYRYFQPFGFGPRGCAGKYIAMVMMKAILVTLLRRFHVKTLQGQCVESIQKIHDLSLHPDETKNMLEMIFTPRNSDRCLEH
Experimental: Aromatase activity is measured in JEG3 choriocarcinoma cells, obtained from the ATCC. […] Cells are maintained in Minimal Essential Medium (MEM, Flow Laboratories, Irvine, Scotland) containing 20 mM HEPES, 10% foetal bovine serum, 2 mM glutamine, non-essential amino acids and 0.075% sodium bicarbonate. Intact monolayers of JEG3 cells (2.5×10^6 cells) in triplicate 25 cm^2 tissue culture flasks are washed with Earle's Balanced salt solution (EBSS, from ICN Flow, High Wycombe, UK) and incubated with [1β-^3H] androstenedione (2-5 nM, 26 Ci/mmol, New England Nuclear, Boston, Mass., USA) for 30 min with inhibitors over the range of 10 pm-10 μM. During the aromatase reaction, ^3H2O is liberated which can he quantified using a liquid scintillation spectrometer (Beckman-Coulter, High Wycombe, Bucks. UK). […] The number of cell nuclei per flask is determined using a Coulter Counter after treating the cell monolayers with Z aponin.
Unpaired Student's t test was used to test the statistical significance of results. IC50 values were calculated as the concentration of inhibitor required to obtain a 50% inhibition of aromatase activity.

[3] = target: T3, oestrone sulphatase (STS) (Rattus norvegicus, UniProt P15589); assay: Inhibition of oestrone sulphatase activity in vivo (Protocol 3)
T3 construct: samples of liver tissue were obtained and oestrone sulphatase activity assayed; from tissue; host or cells: rat liver
T3 sequence (P15589 20-577): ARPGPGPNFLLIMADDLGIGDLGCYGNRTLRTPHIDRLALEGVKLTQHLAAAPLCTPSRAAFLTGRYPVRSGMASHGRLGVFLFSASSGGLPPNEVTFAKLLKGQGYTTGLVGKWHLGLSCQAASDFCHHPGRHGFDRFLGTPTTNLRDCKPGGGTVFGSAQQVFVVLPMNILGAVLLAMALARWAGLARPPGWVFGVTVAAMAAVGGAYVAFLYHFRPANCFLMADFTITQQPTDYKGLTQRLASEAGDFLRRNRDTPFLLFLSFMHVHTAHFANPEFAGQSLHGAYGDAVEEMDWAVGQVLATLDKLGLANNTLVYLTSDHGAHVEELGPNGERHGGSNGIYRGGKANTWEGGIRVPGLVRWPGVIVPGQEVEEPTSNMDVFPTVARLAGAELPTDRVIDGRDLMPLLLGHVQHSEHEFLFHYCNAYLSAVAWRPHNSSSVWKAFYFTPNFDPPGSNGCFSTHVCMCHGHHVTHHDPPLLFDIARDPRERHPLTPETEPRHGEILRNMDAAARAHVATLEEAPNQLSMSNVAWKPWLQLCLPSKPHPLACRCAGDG
Experimental: The compounds of the present invention may be studied using an animal model, in particular in ovariectomised rats. In this model compounds which are oestrogenic stimulate uterine growth.
At the end of the study samples of liver tissue were obtained and oestrone sulphatase activity assayed using 3H oestrone sulphate as the substrate as previously described (see PCT/GB95/02638).
In vivo data were recorded using the above described aromatase and STS animals assays. The relevant compounds were administered and for each animal both aromatase and STS activities were determined.

[4] = system: uterus; settings: cited from earlier work
[5] = target: T4, E1-STS (Homo sapiens, UniProt P08842); settings: 0.1 nM; cited from earlier work
T4 construct: host or cells: MCF-7 cells
T4 sequence (P08842 22-583): T1 sequence (P08842 22-583)

[6] = target: T5, steroid sulphatase (Homo sapiens, UniProt P08842); settings: versus EMATE; cited from earlier work
T5 sequence (P08842 22-583): T1 sequence (P08842 22-583)

[7] = JEG-3; read-out: % AROMATASE INHIBITION (10 μM)
[8] = JEG-3, read-out: % AROMATASE INHIBITION (10 μM)

SMILES | inhibition at 10 µM [1] | inhibition at 10 µM [2, 7] | also measured
CC(C)(C#N)c1cc(/C=C/c2ccc(OS(N)(=O)=O)cc2)cc(Cn2cncn2)c1 [STX1833, 4-(3-((1H-1,2,4-triazol-1-yl)methyl)-5-(2-cyanopropan-2-yl)styryl)phenyl sulfamate] | 21.5 ± 4.7% |  | 
N#CC1(c2cc(CSc3ccc(OS(N)(=O)=O)cc3)cc(Cn3cncn3)c2)CCC1 [STX1731, 4-((3-((1H-1,2,4-triazol-1-yl)methyl)-5-(1-cyanocyclobutyl)benzyl)sulfanyl)phenyl sulfamate] | 21.4 ± 7.9% | 99.5 ± 0.2% | 
COC(=O)c1cc(Cn2cncn2)cc(NC(=O)c2ccc(OS(N)(=O)=O)cc2)c1 [STX1830, 3-(4-Sulfamoyloxy-benzoylamino)-5-[1,2,4]triazol-1-ylmethyl-benzoic acid methyl ester] | 33.4 ± 5.3% |  | inhibition at 10 µM [2, 8]: 52.7 ± 6.7%
CC(C)(C#N)c1cc(CSc2ccc(OS(N)(=O)=O)c(Br)c2)cc(Cn2cncn2)c1 [STX1795, 4-((3-((1H-1,2,4-triazol-1-yl)methyl)-5-(2-cyanopropan-2-yl)benzyl)sulfanyl)-2-bromophenyl sulfamate] |  | 100% | 
N#Cc1ccc(-c2ccc(OS(N)(=O)=O)cc2)cc1Cn1cncn1 [STX1522, Sulfamic acid 4′-cyano-3′-[1,2,4]triazol-1-ylmethyl-biphenyl-4-yl ester] | 96.1 ± 0.3% |  | inhibition at 10 µM [2, 8]: 98 ± 0.3%
CC(C)(C#N)c1cc(COc2ccc(OS(N)(=O)=O)cc2)cc(Cn2cncn2)c1 | < 10% | 99.8 ± 0.2% | 
CC(C)(C#N)c1cc(Cn2cncn2)cc(-c2ccc(OS(N)(=O)=O)cc2)c1 [STX1523, Sulfamic acid 3′-(cyano-dimethyl-methyl)-5′-[1,2,4]triazol-1-ylmethyl-biphenyl-4-yl ester] | 24.4 ± 3.1% | 99.7 ± 0.2% | 
CC(C)(C#N)c1cc(CSc2ccc(OS(N)(=O)=O)cc2)cc(Cn2cncn2)c1 [STX1023] |  |  | inhibition at 10 mg/kg [3]: 87%; IC50 ([2]; JEG3 cells): 3.5 nM; IC50 ([1]; JEG3 cells): > 10000 nM
CC(C)(C#N)c1cc(CSc2ccc(OS(N)(=O)=O)c(Cl)c2)cc(Cn2cncn2)c1 | 82.3 ± 0.8% | 99.9 ± 0.2% | 
N#CC1(c2cc(CSc3ccc(OS(N)(=O)=O)c(Cl)c3)cc(Cn3cncn3)c2)CCC1 [STX1794, 4-((3-((1H-1,2,4-triazol-1-yl)methyl)-5-(1-cyanocyclobutyl)benzyl)sulfanyl)-2-chlorophenyl sulfamate] | 75.3 ± 0.6% | 99.7 ± 0.1% | 
CC(C)(C#N)c1cc(CSc2ccc(O)cc2)cc(Cn2cncn2)c1 [STX1022] |  |  | IC50 ([2]; JEG3 cells): 1 nM
COC(=O)c1cc(Cn2cncn2)cc(NS(=O)(=O)c2ccc(OS(N)(=O)=O)c(F)c2)c1 [STX1528, 3-(3-Fluoro-4-sulfamoyloxy-benzenesulfonylamino)-5-[1,2,4]triazol-1-ylmethyl-benzoic acid methyl ester] | < 10% |  | inhibition at 10 µM [2, 8]: 83.4 ± 1.3%
N#CC1(c2cc(CSc3ccc(OS(N)(=O)=O)cc3)cc(Cn3cncn3)c2)CC1 [STX1732, 4-((3-((1H-1,2,4-triazol-1-yl)methyl)-5-(1-cyanocyclopropyl)benzyl)sulfanyl)phenyl sulfamate] | < 10% | 99.8 ± 0.1% | 
CC12CCC3c4ccc(OS(N)(=O)=O)cc4CCC3C1CCC2=O (stereo not drawn) [EMATE, oestrone-3-sulphamate] |  |  | oral uterotrophic activity relative to estradiol ([4]; rats, oral, versus estradiol): 100 times; inhibition of E1-STS activity in intact MCF-7 cells [5]: more than 99%
COc1cc2c(cc1OS(N)(=O)=O)CC[C@@H]1[C@@H]2CC[C@]2(C)C(=O)CC[C@@H]12 [2-methoxyoestrone-3-O-sulphamate] |  |  | oestrogenicity ([4]; rat, in vivo): devoid of oestrogenicity; potency as steroid sulphatase inhibitor relative to EMATE [6]: equipotent with EMATE
COC(=O)c1cc(Cn2cncn2)cc(N(C)S(=O)(=O)c2ccc(OS(N)(=O)=O)cc2)c1 [STX1829, 3-[Methyl-(4-sulfamoyloxy-benzenesulfonyl)-amino]-5-[1,2,4]triazol-1-ylmethyl-benzoic acid methyl ester] | 17.6 ± 4% | 99.5 ± 0.2% | 
